Experimental data reported in the NIST ThermoML archive (doi:10.1016/j.tca.2008.02.015).

Assay: excess molar enthalpy (molar enthalpy of mixing); xn = mol fraction of the nth substance listed
Details: 298.15 K, 101 kPa, Liquid, Calvet calorimetry

COP(=O)(OC)OC [trimethyl orthophosphate] + CCCCO
Details	excess molar enthalpy [kJ/mol]
x1 = 0.0497	0.4
x1 = 0.1005	0.736
x1 = 0.1531	1
x1 = 0.2071	1.22
x1 = 0.2625	1.35
x1 = 0.3199	1.44
x1 = 0.3794	1.48
x1 = 0.439	1.47
x1 = 0.5024	1.44
x1 = 0.5663	1.37
x1 = 0.6329	1.3
x1 = 0.7016	1.13
x1 = 0.7727	0.928
x1 = 0.8458	0.678
x1 = 0.9216	0.368

COP(=O)(OC)OC [trimethyl orthophosphate] + CCCO
Details	excess molar enthalpy [kJ/mol]
x1 = 0.0408	0.274
x1 = 0.0836	0.526
x1 = 0.1284	0.725
x1 = 0.1753	0.885
x1 = 0.225	0.982
x1 = 0.2769	1.07
x1 = 0.3319	1.17
x1 = 0.39	1.22
x1 = 0.4508	1.24
x1 = 0.5139	1.18
x1 = 0.5701	1.13
x1 = 0.6274	1.03
x1 = 0.6875	0.914
x1 = 0.7351	0.823
x1 = 0.7834	0.698
x1 = 0.8518	0.491
x1 = 0.9054	0.33
x1 = 0.9614	0.174

COP(=O)(OC)OC [trimethyl orthophosphate] + CCO
Details	excess molar enthalpy [kJ/mol]
x1 = 0.0322	0.154
x1 = 0.0665	0.308
x1 = 0.1032	0.456
x1 = 0.1426	0.552
x1 = 0.185	0.633
x1 = 0.2305	0.702
x1 = 0.2796	0.751
x1 = 0.3327	0.826
x1 = 0.3671	0.871
x1 = 0.4156	0.873
x1 = 0.454	0.859
x1 = 0.5232	0.804
x1 = 0.6	0.714
x1 = 0.6836	0.604
x1 = 0.7775	0.466
x1 = 0.8821	0.262
x1 = 0.928	0.177
x1 = 0.9752	0.088

COP(=O)(OC)OC [trimethyl orthophosphate] + CO
Details	excess molar enthalpy [kJ/mol]
x1 = 0.037	0.0495
x1 = 0.0739	0.0883
x1 = 0.1033	0.112
x1 = 0.1428	0.138
x1 = 0.1876	0.149
x1 = 0.2569	0.226
x1 = 0.3086	0.213
x1 = 0.3658	0.201
x1 = 0.4047	0.186
x1 = 0.4619	0.173
x1 = 0.51	0.147
x1 = 0.562	0.126
x1 = 0.6405	0.0988
x1 = 0.7079	0.0651
x1 = 0.783	0.0427
x1 = 0.8383	0.0283
x1 = 0.9	0.014
x1 = 0.9647	0.00198
